Assays:
[1] = system: primary Lin- BC-CML cells; assay: Colony formation assay, primary Lin- BC-CML cells; format: cell-based; conditions: primary mouse Lin- BC-CML cells plated with Gbp; FIG. 2B
Procedure: (§1) The human BC-CML cell line K562, the human acute leukemia cell lines MV4-11 and U937 were maintained in Roswell Park Memorial Institute 1640 medium (RPMI-1640) with 10% FBS, 100 IU/ml penicillin and 100 μg/ml streptomycin. The human acute promyelocytic leukemia cell line HL60 was maintained in RPMI supplemented with 20% FBS. All human cell lines were obtained from ATCC, and cell line authentication testing was performed by ATCC-standardized STR analysis to verify their identity in July 2016. For the colony forming assays, the cells were transduced with lentiviral shRNA and plated in triplicate in 1.2% methylcellulose medium (R&D systems) supplemented with 100 IU/ml penicillin and 100 μg/ml streptomycin, 10% FBS. Where indicated, either BCAAs (L-Leucine, L-Valine, L-Isoleucine, 4 mM each, Sigma-Aldrich), L-alanyl-L-glutamine (4 mM, GlutaMax™, Life Technologies), rapamycin (50 nM, Tocris) or gabapentin (Gbp; Tokyo Chemical Industry Co.) was added to the medium. Gbp was freshly dissolved in PBS before use. Colonies were scored on days 9 to 14. […] Colonies were scored on days 7 to 10.

normal HSPCs = assay: Colony formation assay, normal HSPCs (LSK cells); format: cell-based, mouse; conditions: FIGS. 9E-F
Procedure: as §1

K562 human BC-CML cells = assay: Colony formation assay, K562 cells; format: cell-based; conditions: for leukemic colony formation: K562, Gabapentin in combination with Imatinib, 300 cells per well, scored on day 5, FIG. 14A
Procedure: BCAT1 inhibition by Gabapentin is shown in FIG. 14A, leukemic colony formation by human blast crisis CML was attenuated in combination with the tyrosine kinase inhibitor Imatinib. […] Three hundred cells were plated per well in triplicate, and colonies were scored on day 5 (error bars indicates s.e.m. *p<0.05, **p<0.01). Inhibition of leukemic colony formation by gabapentin (Gbp) and its structural analogs was also investigated (FIG. 14B). The colony-forming ability of K562 human CML cells treated with the indicated chemicals was investigated. One hundred fifty cells were plated per well in triplicate, and colonies were scored on day 14 (error bars indicates s.e.m. ***p<0.001 compared with the vehicle control).
as §1

[2] = system: primary human BC-CML cells; assay: Colony formation assay, patient-derived primary BC-CML cells; format: cell-based; conditions: patient-derived primary leukemia cells; FIGS. 3D-E, 11E-F
Procedure: (§2) Patient blood samples were obtained at the Institute of Medical Science, the University of Tokyo (IMSUT) Hospital with written informed consent according to the procedures approved by the Institutional Review Board. Mononuclear cells from the subjects were viably frozen and stored in liquid nitrogen. For in vitro colony formation with BCAT1 knockdown, primary hCD34^+ cells sorted from patient bone marrow samples were cultured in IMDM supplemented with 10% FBS, 100 IU/ml penicillin and 100 μg/ml streptomycin, 55 μM 2-mercaptoethanol, SCF, IL-3, IL-6, FLT3L and TPO. After 24 h of culture, the cells were transduced with lentiviral shRNA (cloned in FG12-UbiC-GFP), and the GFP-positive infected cells were sorted at 48 h, and 5,000-50,000 cells were plated in complete methylcellulose medium (Methocult H4435, StemCell Technologies). For the colony forming assays with Gbp, sorted hCD34^+ cells from the primary patient specimens were cultured in complete methylcellulose medium with the indicated concentrations of Gbp. Colonies were scored on days 9 to 14.

[3] = system: human AML cell lines (MV4-11, U937, HL60); assay: Colony formation assay, human AML cell lines; format: cell-based; conditions: FIG. 11G-I
Procedure: as §1

primary human AML cells = assay: Colony formation assay, primary de novo AML cells; format: cell-based; conditions: FIG. 3G
Procedure: as §2

[4] = system: intracellular BCAAs in K562 cells; assay: Intracellular amino acid quantification in K562 cells; format: cell-based, human; conditions: compared with the controls, FIGS. 12A-B
Procedure: Leukemia cells or peripheral blood samples drawn from mice bearing myeloid leukemia were used for amino acid and keto acid analysis by high-performance liquid chromatography (HPLC)-fluorescence detection, as described^32-34. In brief, two hundred thousand live leukemia cells per sample were sorted and washed twice with ice-cold PBS to remove media components prior to amino acid extraction. The blood plasma was prepared by centrifugation of the peripheral blood samples at 2,000×g at 4° C. for 10 min. […] For amino acid quantification, the dried samples were treated with the amine-reactive 4-fluoro-7-nitro-2,1,3-benzoxadizole (NBD-F) to derivatize the amino acids. […] The gradient conditions were as follows: t=0 min, 10% B; t=20 min, 50% B; and t=30 min, 100% B. For NBD-Asn, Ser, Thr, Gln and Phe analysis, 25 mM citrate buffer containing 25 mM sodium perchlorate (pH 4.4) was used as the mobile phase A. NBD-amino acids were detected with excitation and emission wavelengths of 470 and 530 nm, respectively. For keto acid quantification, dried samples were treated with o-phenylenediamine (OPD) to derivatize alpha-keto acids, followed by liquid-liquid extraction with ethyl acetate. […] The fluorescence detection was carried out at the emission wavelength of 410 nm with excitation of 350 nm.

[5] = system: S6 kinase (pS6K), a downstream target of mTORC1 kinase; assay: Western blotting for phospho-S6 kinase in K562 cells; format: cell-based, human; conditions: shBCAT1-d or 20 mM Gbp for 24 h, FIG. 3J
BCAT1 = biological target: T1, BCAT1 (Homo sapiens, UniProt P54687); conditions: literature reference 7; cited from earlier work
T1 sequence (P54687 1-386): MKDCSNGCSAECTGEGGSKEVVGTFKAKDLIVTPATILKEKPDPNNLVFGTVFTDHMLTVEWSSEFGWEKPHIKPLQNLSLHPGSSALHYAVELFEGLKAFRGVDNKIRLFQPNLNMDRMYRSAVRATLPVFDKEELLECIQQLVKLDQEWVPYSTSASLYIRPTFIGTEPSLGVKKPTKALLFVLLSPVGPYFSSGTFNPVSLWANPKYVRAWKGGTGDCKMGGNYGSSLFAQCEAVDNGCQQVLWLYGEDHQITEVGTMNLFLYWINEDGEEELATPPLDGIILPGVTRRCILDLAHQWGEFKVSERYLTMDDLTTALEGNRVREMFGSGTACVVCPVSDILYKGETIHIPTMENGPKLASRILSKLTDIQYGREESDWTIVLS

BCAT2 = biological target: T2, BCAT2 (Homo sapiens, UniProt O15382); conditions: literature reference 7; cited from earlier work
T2 sequence (O15382 28-392): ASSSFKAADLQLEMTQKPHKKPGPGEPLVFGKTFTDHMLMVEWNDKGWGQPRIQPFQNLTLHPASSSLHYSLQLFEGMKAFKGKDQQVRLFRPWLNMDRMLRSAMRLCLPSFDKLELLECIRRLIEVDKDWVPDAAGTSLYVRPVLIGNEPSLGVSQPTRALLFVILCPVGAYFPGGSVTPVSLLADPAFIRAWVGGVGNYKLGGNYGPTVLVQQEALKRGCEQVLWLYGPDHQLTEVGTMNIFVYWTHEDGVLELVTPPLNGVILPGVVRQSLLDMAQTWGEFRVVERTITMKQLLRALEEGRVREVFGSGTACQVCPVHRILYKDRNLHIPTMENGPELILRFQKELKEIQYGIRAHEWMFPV

[6] = in water and in both basic and acidic aqueous solutions; cited from earlier work

NCC1(CC(=O)O)CCCCC1 [Gbp, 1-(aminomethyl)cyclohexane acetic acid]
clonogenic growth [1]: dose-dependent impairment
colony size [1]: formed smaller colonies
colony-forming ability of normal HSPCs (normal HSPCs): only minimally affected
leukemic colony formation (K562 human BC-CML cells): attenuated
colony-forming ability (K562 human BC-CML cells; K562 human BC-CML, FIG. 11A-D): markedly inhibited
colony-forming ability [2]: markedly inhibited
clonal growth [3]: effectively inhibited
clonal growth (primary human AML cells): effectively inhibited
intracellular concentrations of all three BCAAs [4]: significantly reduced
phosphorylation of S6 kinase (pS6K) [5]: significantly reduced
inhibition of the transaminase activity of BCAT1 (BCAT1): specifically and competitively inhibit
inhibition of the transaminase activity of BCAT2 (BCAT2): but not that of BCAT2
solubility [6]: freely soluble

Cc1ccc(NC(=O)c2ccc(CN3CCN(C)CC3)cc2)cc1Nc1nccc(-c2cccnc2)n1 [Imatinib]
leukemic colony formation (K562 human BC-CML cells): attenuated
